Source: patent US9856304B2, “Peptide and application thereof” (Saitama Medical University, priority 2013, dated 2018)

Columns and labels:
[1] = tested on: MIN6 cells (pancreatic β cell line); assay: EdU cell proliferation assay, growth promotion of pancreatic β cells (3), versus Peptides A, B, C; type: cell-based; conditions: betagenin 1 nM compared with Peptides A, C at 3 nM or 5 nM, FIG. 5
Protocol: MIN6 cells provided by Dr. Miyazaki at Osaka University were used as a pancreatic β cell line. MIN6 cells were maintained in a DMEM culture medium with added 15% (v/v) of FBS.
A DMSO solution was prepared so that the concentration of chemically synthesized betagenin was 97% of purity, as a pancreatic hormone-producing cell growth-promoting agent.
Further, for comparison, Peptides A, B, C consisting of the amino acid sequences set forth in SEQ ID Nos: 4 to 6, respectively, were prepared by chemical synthesis.
First, MIN6 cells were plated on a collagen-coated 8-well slide chamber (BD Falcon, Product Number 354630) at a cell density of 1×10^4 cells/well for confirming the growth promotion of pancreas β cells. After 24 hours, the culture medium was replaced with a DMEM culture medium with added 0.5% (v/v) of FBS, and then serum starvation was performed for 72 hours. Note that the culture medium was replaced with a fresh culture medium 48 hours after the start of serum starvation. […]
The incorporated EdU was visualized as red fluorescence using Alexa Flour™ 594, and observed with a fluorescence microscope (Carl Zeiss). […] Note that a red fluorescence part representing a region where EdU was taken up will be confirmed as a dark black part due to the operations of black and white processing and black and white inversion.

[2] = tested on: human iPS cells (253G1 cells); assay: Differentiation induction of human iPS cells into pancreatic hormone-producing cells (2), quantitative RT-PCR; type: cell-based; conditions: 1 nM betagenin in steps (A2) to (D2), vs ACN control, GAPDH corrected
Protocol: As human iPS cells, used were 253G1 cells purchased from the cell bank at RIKEN. The cells were cultured/maintained in an ES cell culture medium (DMEM/ham F12, 20% KSR, nonessential amino acid, 2 mM L-glutamine, 0.1 mM 2-mercaptoethanol, 5.2 mM NaOH) with added 4 ng/mL FGF-2 (Global Stem) and penicillin/streptomycin (Nacalai Tesque, Inc.) along with SNL76/7 cells (DS Pharma Biomedical) treated with mitomycin-C. CTK (0.25% trypsin, 1 mg/mL Collagenase IV, 20% KSR, 1 mM CaCl2 in PBS) was used for cell detachment, and diluted at a ratio of 1:3 to 1:4 to perform passage culture.
The cells were detached with trypsin-EDTA 3 days before the start of differentiation induction, and plated at a cell density of 6.3×10^4 cells/cm2, and cultured for 1 day in an ES cell culture medium with added 10 μM Y-27632 (Wako), 4 ng/mL FGF-2 and penicillin/streptomycin along with STO cells treated with mitomycin-C. Subsequently, they were further cultured for 2 days in an ES cell culture medium with added 4 ng/mL FGF-2 and penicillin/streptomycin.
On the first day of the start of differentiation induction, the culture medium was replaced with a RPMI1640 culture medium (Nacalai Tesque, Inc.) with added 2% (v/v) FBS, 100 ng/mL activin A (SBI), 3 μM CHIR99021 (Axon Medchem) and 1 nM betagenin, and cultured for 1 day (Step (A2)). […]
The gene expressions of insulin, glucagon, somatostatin were confirmed by quantitative RT-PCR for cells (n=3 for each of the betagenin addition group and the control group) obtained from 253G1 cells via the above steps (A2) to (D2). Specifically, total RNA was first extracted from the cells using a SV Total RNA Isolation System (Promega), and reverse transcription reactions were performed with BioScript™ transcriptase (Bioline), and then quantitative PCR analysis was performed with LightCycler™ (Roche) using SYBR™ Green PCR Master Mix (Applied Biosystems). Note that the gene expression of GAPDH was determined by quantitative RT-PCR as an internal control. […]

betagenin: chemically synthesized peptide of SEQ ID NO: 1, fragment of human TM4SF20 from Position 170 to Position 229 (WRASSFHFDSEENKHRLIHFSVFLGLLLVGILEVLFGLSQIVIGFLGCLCGVSKRRSQIV; Peptide Sequence betagenin; listed as Homo sapiens)
EdU uptake in fluorescence microscope images (dark black parts) [1]: significantly darker black parts | amount of expression of insulin (relative) ([2]; first day taken as 1, FIG. 6): increased | amount of expression of glucagon (relative) ([2]; first day taken as 1, FIG. 7): increased | amount of expression of somatostatin (relative) ([2]; first day taken as 1, FIG. 8): increased
